Data taken from patent US8338465B2, “Cyclic carboxylic acid rhodanine derivatives for the treatment and prevention of tuberculosis” (priority 2006, dated 2012).

These molecules were tested against T1, dihydrolipoamide acyltransferase (DlaT) (Mycobacterium tuberculosis, UniProt P9WIS7) (assay: DlaT inhibition (Dlat IC50); DTNB peroxidase assay with Lpd, DlaT and AhpD). Conditions: Dlat IC50 category.
T1 sequence (P9WIS7 1-553): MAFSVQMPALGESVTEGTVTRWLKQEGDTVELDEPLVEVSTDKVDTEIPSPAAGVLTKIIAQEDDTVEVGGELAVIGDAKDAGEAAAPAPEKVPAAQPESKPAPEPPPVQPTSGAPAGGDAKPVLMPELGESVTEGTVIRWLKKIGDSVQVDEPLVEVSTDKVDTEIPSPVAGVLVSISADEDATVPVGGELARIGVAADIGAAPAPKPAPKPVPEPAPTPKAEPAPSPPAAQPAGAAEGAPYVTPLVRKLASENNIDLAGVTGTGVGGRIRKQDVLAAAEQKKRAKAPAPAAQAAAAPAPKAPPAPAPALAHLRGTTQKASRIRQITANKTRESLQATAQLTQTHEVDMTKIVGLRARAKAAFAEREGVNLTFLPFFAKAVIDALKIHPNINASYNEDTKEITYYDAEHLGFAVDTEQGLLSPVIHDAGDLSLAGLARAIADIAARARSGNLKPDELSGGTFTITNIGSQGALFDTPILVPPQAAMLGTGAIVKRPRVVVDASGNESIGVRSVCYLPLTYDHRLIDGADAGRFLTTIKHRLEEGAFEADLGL
Assay type: biochemical
With `CC(C)(C)c1ccc(-c2ccc(C=C3SC(=S)N(CC(=O)O)C3=O)o2)cc1` [Compound B74] the IC50 was < 10 µM. With `CC(C)c1cccc(-c2ccc(C=C3SC(=S)N(C(Cc4ccccc4)C(=O)O)C3=O)o2)c1` (centres unmarked) [Compound B75] the IC50 was < 10 µM. `O=C(O)C(Cc1ccccc1)N1C(=O)C(=Cc2ccc(-c3ccc(CSc4ccccc4)cc3)o2)SC1=S` (centres unmarked) [Compound B76] was tested, and the IC50 was < 10 µM. For `CC(C)Cc1ccc(-c2ccc(C=C3SC(=S)N(CC(=O)O)C3=O)o2)cc1` [Compound B77], the IC50 was < 10 µM. For `CC(C)Cc1ccc(-c2ccc(C=C3SC(=S)N(C(C(=O)O)c4ccccc4)C3=O)o2)cc1` (centres unmarked) [Compound B78], the IC50 was < 10 µM. For `O=C(O)CN1C(=O)C(=Cc2ccc(-c3ccc(Cc4ccc(Cl)cc4)cc3)o2)SC1=S` [Compound B79], the IC50 was < 10 µM. For `O=C(O)CN1C(=O)C(=Cc2ccc(-c3ccc(C4CCCC4)cc3)o2)SC1=S` [Compound B81], the IC50 was < 10 µM. For `C=C(c1ccccc1)c1ccc(-c2ccc(C=C3SC(=S)N(CC(=O)O)C3=O)o2)cc1` [Compound B82], the IC50 was < 10 µM. Molecule `CN(C)c1ccc(-c2ccc(C=C3SC(=S)N(CC(=O)O)C3=O)o2)cc1` [Compound B84] has an IC50 of 11 to 40 µM. With `O=C(O)CN1C(=O)C(=Cc2ccc(-c3cccc(Cl)c3Cl)o2)SC1=S` [Compound B85] the IC50 was < 10 µM. `CN(C)c1ccc(-c2ccc(C=C3SC(=S)N(CC(=O)O)C3=O)o2)cc1` [Compound B86] was tested, and the IC50 was 41 to 80 µM. With `Cc1ccccc1-c1ccc(C=C2SC(=S)N(CC(=O)O)C2=O)o1` [Compound B87] the IC50 was 41 to 80 µM. `COc1ccccc1-c1ccc(C=C2SC(=S)N(CC(=O)O)C2=O)o1` [Compound B88] was tested, and the IC50 was 11 to 40 µM. `N#Cc1c(F)cccc1-c1ccc(C=C2SC(=S)N(C(C(=O)O)c3ccccc3)C2=O)o1` (centres unmarked) [Compound B89] showed an IC50 of 11 to 40 µM. For `O=C(O)CCCN1C(=O)C(=Cc2ccc(-c3ccccc3Cl)o2)SC1=S` [Compound B90], the IC50 was < 10 µM. For `O=C(O)CCCN1C(=O)C(=Cc2ccc(-c3cccc(C(F)(F)F)c3)o2)SC1=S` [Compound B91], the IC50 was < 10 µM. Work on `Cc1cc(N(C)C)ccc1-c1ccc(C=C2SC(=S)N(CCCC(=O)O)C2=O)o1` [Compound B92] yielded an IC50 of 11 to 40 µM. `CS(=O)(=O)c1ccc(-c2ccc(C=C3SC(=S)N(CCCC(=O)O)C3=O)o2)cc1` [Compound B93] showed an IC50 of 11 to 40 µM. For `CC(C(=O)O)N1C(=O)C(=Cc2ccc(-c3ccccc3Cl)o2)SC1=S` (centres unmarked) [Compound B94], the IC50 was 11 to 40 µM. `CC(C(=O)O)N1C(=O)C(=Cc2ccc(-c3cccc(Cl)c3)o2)SC1=S` (centres unmarked) [Compound B95] was tested, and the IC50 was 11 to 40 µM. With `CC(C(=O)O)N1C(=O)C(=Cc2ccc(-c3ccc(Cl)cc3)o2)SC1=S` (centres unmarked) [Compound B96] the IC50 was < 10 µM. For `Cc1ccccc1-c1ccc(C=C2SC(=S)N(C(C)C(=O)O)C2=O)o1` (centres unmarked) [Compound B97], the IC50 was 11 to 40 µM. Molecule `CC(C(=O)O)N1C(=O)C(=Cc2ccc(-c3ccc(F)cc3)o2)SC1=S` (centres unmarked) [Compound B98] has an IC50 of 41 to 80 µM. `CC(C(=O)O)N1C(=O)C(=Cc2ccc(-c3ccccc3C(F)(F)F)o2)SC1=S` (centres unmarked) [Compound B99] showed an IC50 of 11 to 40 µM. `CC(C(=O)O)N1C(=O)C(=Cc2ccc(-c3cccc(C(F)(F)F)c3)o2)SC1=S` (centres unmarked) [Compound B100] was tested, and the IC50 was < 10 µM. With `CC(C)C(C(=O)O)N1C(=O)C(=Cc2ccc(-c3ccccc3Cl)o2)SC1=S` (centres unmarked) [Compound B101] the IC50 was < 10 µM. Molecule `CC(C)C(C(=O)O)N1C(=O)C(=Cc2ccc(-c3cccc(Cl)c3)o2)SC1=S` (centres unmarked) [Compound B102] has an IC50 of 11 to 40 µM. In the case of `CC(C)C(C(=O)O)N1C(=O)C(=Cc2ccc(-c3ccc(Cl)cc3)o2)SC1=S` (centres unmarked) [Compound B103], the IC50 is reported as < 10 µM. In the case of `CC(C)C(C(=O)O)N1C(=O)C(=Cc2ccc(-c3ccccc3C(F)(F)F)o2)SC1=S` (centres unmarked) [Compound B104], the IC50 is reported as < 10 µM. With `CC(C)C(C(=O)O)N1C(=O)C(=Cc2ccc(-c3cccc(C(F)(F)F)c3)o2)SC1=S` (centres unmarked) [Compound B105] the IC50 was 11 to 40 µM. Molecule `Cc1ccccc1-c1ccc(C=C2SC(=S)N(C(C(=O)O)C(C)C)C2=O)o1` (centres unmarked) [Compound B106] has an IC50 of 11 to 40 µM. `CC(C)C(C(=O)O)N1C(=O)C(=Cc2ccc(-c3ccc(F)cc3)o2)SC1=S` (centres unmarked) [Compound B107] was tested, and the IC50 was 11 to 40 µM. With `CC(C)C(C(=O)O)N1C(=O)C(=Cc2ccc(-c3ccc(Cl)cc3Cl)o2)SC1=S` (centres unmarked) [Compound B108] the IC50 was < 10 µM. For `COc1ccc(-c2ccc(C=C3SC(=S)N(C(C(=O)O)C(C)C)C3=O)o2)cc1Cl` (centres unmarked) [Compound B109], the IC50 was < 10 µM. With `CC(C)C(C(=O)O)N1C(=O)C(=Cc2ccc(-c3ccc(Cl)cc3[N+](=O)[O-])o2)SC1=S` (centres unmarked) [Compound B110] the IC50 was 11 to 40 µM. `CC(C)C(C(=O)O)N1C(=O)C(=Cc2ccc(-c3ccc(Cl)c(Cl)c3)o2)SC1=S` (centres unmarked) [Compound B111] was tested, and the IC50 was < 10 µM. In the case of `COc1ccc(-c2ccc(C=C3SC(=S)N(C(C)C(=O)O)C3=O)o2)cc1Cl` (centres unmarked) [Compound B113], the IC50 is reported as < 10 µM. `CC(C(=O)O)N1C(=O)C(=Cc2ccc(-c3ccc(Cl)cc3[N+](=O)[O-])o2)SC1=S` (centres unmarked) [Compound B114] gave an IC50 of 11 to 40 µM. Work on `CNS(=O)(=O)c1ccc(-c2ccc(C=C3SC(=S)N(CCCC(=O)O)C3=O)o2)cc1` [Compound B115] yielded an IC50 of 41 to 80 µM. With `O=C(O)C1CCCC(N2C(=O)C(=Cc3ccc(-c4ccccc4Cl)o3)SC2=S)C1` (centres unmarked) [Compound C1, 3-{5-[1-[5-(2-chloro-phenyl)-furan-2-yl]-methylidene]-4-oxo-2-thioxo-thiazolidin-3-yl}-cyclohexanecarboxylic acid] the IC50 was 11 to 40 µM. With `O=C(O)C1CCCC(N2C(=O)C(=Cc3ccc(-c4ccc(C5CCCCC5)cc4)o3)SC2=S)C1` (centres unmarked) [Compound C2, 3-{5-[1-[5-(4-cyclohexyl-phenyl)-furan-2-yl]-methylidene]-4-oxo-2-thioxo-thiazolidin-3-yl}-cyclohexanecarboxylic acid] the IC50 was < 10 µM. For `CC(C)(C)c1ccc(-c2ccc(C=C3SC(=S)N(C4CCCC(C(=O)O)C4)C3=O)o2)cc1` (centres unmarked) [Compound C3, 3-{5-[1-[5-(4-tert-butyl-phenyl)-furan-2-yl]-methylidene]-4-oxo-2-thioxo-thiazolidin-3-yl}-cyclohexanecarboxylic acid], the IC50 was < 10 µM. With `CC(C)Cc1ccc(-c2ccc(C=C3SC(=S)N(C4CCCC(C(=O)O)C4)C3=O)o2)cc1` (centres unmarked) [Compound C4, 3-{5-[1-[5-(4-isobutyl-phenyl)-furan-2-yl]methylidene]-4-oxo-2-thioxo-thiazolidin-3-yl}-cyclohexanecarboxylic acid] the IC50 was < 10 µM. In the case of `O=C(O)C1CCCC(N2C(=O)C(=Cc3ccc(-c4cccc(C(F)(F)F)c4)o3)SC2=S)C1` (centres unmarked) [Compound C5, 3-{5-[1-[5-(3-trifluoromethyl-phenyl)-furan-2-yl]-methylidene]-4-oxo-2-thioxo-thiazolidin-3-yl}-cyclohexanecarboxylic acid], the IC50 is reported as < 10 µM. For `O=C(O)C1CCCC(N2C(=O)C(=Cc3ccc(-c4ccc(Cc5ccccc5)cc4)o3)SC2=S)C1` (centres unmarked) [Compound C6, 3-{5-[1-[5-(4-benzyl-phenyl)-furan-2-yl]-methylidene]-4-oxo-2-thioxo-thiazolidin-3-yl}-cyclohexanecarboxylic acid], the IC50 was < 10 µM. In the case of `O=C(O)C1CCCC(N2C(=O)C(=Cc3ccc(-c4ccc(F)cc4F)o3)SC2=S)C1` (centres unmarked) [Compound C7, 3-{5-[1-[5-(2,4-difluoro-phenyl)-furan-2-yl]-methylidene]-4-oxo-2-thioxo-thiazolidin-3-yl}-cyclohexanecarboxylic acid], the IC50 is reported as < 10 µM. With `Cc1ccc(-c2ccc(C=C3SC(=S)N(C4CCCC(C(=O)O)C4)C3=O)o2)c(C)c1` (centres unmarked) [Compound C8, 3-{5-[1-[5-(2,4-dimethyl-phenyl)-furan-2-yl]-methylidene]-4-oxo-2-thioxo-thiazolidin-3-yl}-cyclohexanecarboxylic acid] the IC50 was < 10 µM. Work on `COc1ccc(-c2ccc(C=C3SC(=S)N(C4CCCC(C(=O)O)C4)C3=O)o2)c(C)c1` (centres unmarked) [Compound C9, 3-{5-[1-[5-(2-methyl-4-methoxy-phenyl)-furan-2-yl]-methylidene]-4-oxo-2-thioxo-thiazolidin-3-yl}-cyclohexanecarboxylic acid] yielded an IC50 of 11 to 40 µM. Molecule `Cc1ccccc1-c1cccc(C=C2SC(=S)N(C3CCCC(C(=O)O)C3)C2=O)n1` (centres unmarked) [Compound C10, 3-[4-Oxo-2-thioxo-5-(6-o-tolyl-pyridin-2-ylmethylene)-thiazolidin-3-yl]-cyclohexanecarboxylic acid] has an IC50 of 41 to 80 µM. `Cc1cc(F)ccc1-c1ccc(C=C2SC(=S)N(C3CCCC(C(=O)O)C3)C2=O)o1` (centres unmarked) [Compound C11, 3-{5-[1-[5-(2-methyl-4-fluoro-phenyl)-furan-2-yl]-methylidene]-4-oxo-2-thioxo-thiazolidin-3-yl}-cyclohexanecarboxylic acid] was tested, and the IC50 was < 10 µM. In the case of `Cc1ccc(-c2ccc(C=C3SC(=S)N(C4CCCC(C(=O)O)C4)C3=O)o2)c(F)c1` (centres unmarked) [Compound C12, 3-{5-[1-[5-(2-fluoro-4-methyl-phenyl)-furan-2-yl]-methylidene]-4-oxo-2-thioxo-thiazolidin-3-yl}-cyclohexanecarboxylic acid], the IC50 is reported as < 10 µM. `O=C(O)C1CCCC(N2C(=O)C(=Cc3ccc(-c4ccccc4O)o3)SC2=S)C1` (centres unmarked) [Compound C13, 3-{5-[1-[5-(2-hydroxy-phenyl)-furan-2-yl]-methylidene]-4-oxo-2-thioxo-thiazolidin-3-yl}-cyclohexanecarboxylic acid] was tested, and the IC50 was < 10 µM. In the case of `Cc1ccc(-c2ccc(C=C3SC(=S)N(C4CCCC(C(=O)O)C4)C3=O)o2)cc1` (centres unmarked) [Compound C14, 3-{4-oxo-2-thioxo-5-[1-(5-p-tolyl-furan-2-yl)-methylidene]-thiazolidin-3-yl}-cyclohexanecarboxylic acid], the IC50 is reported as < 10 µM.
